Data published in patent US6833456B2, “Indolyl-urea derivatives of thienopyridines useful as antiangiogenic agents, and methods for their use” (Agouron Pharmaceuticals, Inc., priority 2002, dated 2004).

What was measured:
[1] = Mouse PK assay; format: in vivo, B6 female mice; conditions: po
Method: The pharmacokinetics (e.g., absorption and elimination) of drugs in mice were analyzed using the following experiment. Test compounds were formulated as a suspension in a 30:70 (PEG 400: acidified H2O) vehicle. This solution was administered orally (p.o.) and intraperitoneally (i.p.) at 50 mg/kg to two distinct groups (n=4) of B6 female mice. Blood samples were collected via an orbital bleed at time points: 0 hour (pre-dose), 0.5 hr, 1.0 hr, 2.0 hr, and 4.0 hr post dose. Plasma was obtained from each sample by centrifugation at 2500 rpm for 5 min. Test compound was extracted from the plasma by an organic protein precipitation method. For each time bleed, 50 μL of plasma was combined with 1.0 mL of acetonitrile, vortexed for 2 min. and then spun at 4000 rpm for 15 min. to precipitate the protein and extract out the test compound. Next, the acetonitrile supernatant (the extract containing test compound) was poured into new test tubes and evaporated on a hot plate (25° C.) under a steam of N2 gas. To each tube containing the dried test compound extract, 125 μL of mobile phase (60:40, 0.025 M NH4H2PO4+2.5 mL/L TEA:acetonitrile) was added. The test compound was resuspended in the mobile phase by vortexing and more protein was removed by centrifugation at 4000 rpm for 5 min. Each sample was poured into an HPLC vial for test compound analysis on an Hewlett Packard 1100 series HPLC with UV detection. From each sample, 95 μL was injected onto a Phenomenex-Prodigy reverse phase C-18, 150×3.2 mm column and eluted with a 45-50% acetonitrile gradient run over 10 min. Test-compound plasma concentrations (μg/mL) were determined by a comparison to standard curve (peak area vs. conc. μg/mL) using known concentrations of test compound extracted from plasma samples in the manner described above. Along with the standards and unknowns, three groups (n=4) of quality controls (0.25 μg/mL, 1.5 μg/mL, and 7.5 μg/mL) were run to insure the consistency of the analysis. […] The quantitated test samples were plotted for visual display using Kaleidagraph software and their pharmacokinetic parameters were determined using WIN NONLIN software.

[2] = target: T1, unphosphorylated VEGF-R2Δ50 (FLVK) (Homo sapiens, UniProt P35968, DEL940-989/E990V); assay: VEGF-R2 coupled spectrophotometric assay, unphosphorylated construct (FLVK); format: biochemical; conditions: for inhibition at 0.05 µM: percent inhibition at 50 nM
T1 construct: VEGF-R2Δ50 contains residues 806-939 and 990-1171; made in house; host or cells: baculovirus/insect cell system
Excerpt: This construct determines the ability of a test compound to inhibit tyrosine kinase activity. A construct (VEGF-R2Δ50) of the cytosolic domain of human vascular endothelial growth factor receptor 2 (VEGF-R2) lacking the 50 central residues of the 68 residues of the kinase insert domain was expressed in a baculovirus/insect cell system. Of the 1356 residues of full-length VEGF-R2, VEGF-R2Δ50 contains residues 806-939 and 990-1171, and also one point mutation (E990V) within the kinase insert domain relative to wild-type VEGF-R2. Autophosphorylation of the purified construct was performed by incubation of the enzyme at a concentration of 4 μM in the presence of 3 mM ATP and 40 mM MgCl2 in 100 mM HEPES, pH 7.5, containing 5% glycerol and 5 mM DTT, at 4° C. for 2 h. […] See Parast et al., Biochemistry, 37, 16788-16801 (1998).
The production of ADP from ATP that accompanies phosphoryl transfer was coupled to oxidation of NADH using phosphoenolpyruvate (PEP) and a system having pyruvate kinase (PK) and lactic dehydrogenase (LDH). The oxidation of NADH was monitored by following the decrease of absorbance at 340 nm ([…]=6.22 cm^−1 mM^−1) using a Beckman DU 650 spectrophotometer. Assay conditions for phosphorylated VEGF-R2Δ50 (indicated as FLVK-P in the tables below) were the following: 1 mM PEP; 250 μM NADH; 50 units of LDH/mL; 20 units of PK/mL; 5 mM DTT; […]; 1 mM ATP; and 25 mM MgCl2 in 200 mM HEPES, pH 7.5. Assay conditions for unphosphorylated VEGF-R2Δ50 (indicated as FLVK in the tables) were the following: 1 mM PEP; 250 μM NADH; 50 units of LDH/mL; 20 units of PK/mL; 5 mM DTT; […]; 3 mM ATP; and 60 mM MgCl2 and 2 mM MnCl2 in 200 mM HEPES, pH 7.5. Assays were initiated with 5 to 40 nM of enzyme. Ki values were determined by measuring enzyme activity in the presence of varying concentrations of test compounds. The percent inhibition at 50 nm (% inhibition@ 50 nm) was determined by linear least-squares regression analysis of absorbance as a function of time. The binding inhibitions were fitted to equation as described by Morrison. The data were analyzed using Enzyme Kinetic and Kaleidagraph software.

T1 sequence (P35968 with tags, fused parts or gaps DEL940-989/E990V limits assumed): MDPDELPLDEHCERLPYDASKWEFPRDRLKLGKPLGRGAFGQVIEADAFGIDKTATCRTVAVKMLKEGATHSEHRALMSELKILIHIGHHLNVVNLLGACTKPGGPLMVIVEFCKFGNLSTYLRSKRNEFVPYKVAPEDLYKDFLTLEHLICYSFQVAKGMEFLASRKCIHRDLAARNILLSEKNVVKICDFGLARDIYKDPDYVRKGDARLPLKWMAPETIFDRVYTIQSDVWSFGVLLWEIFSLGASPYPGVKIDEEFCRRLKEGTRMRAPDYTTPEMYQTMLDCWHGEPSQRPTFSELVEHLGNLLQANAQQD

Mouse Cmin, po [1] [ng/mL]	Ki [2] [nM]	inhibition at 0.05 µM [2] [%]	AUC ([1]; female, B6, mouse, plasma, 50 mg/kg) [ng·h/mL]	Cmax ([1]; female, B6, mouse, plasma, 50 mg/kg, p.o., 50 mg/kg, read-out: Mouse Cmax, po ng-h/mL) [ng/mL]	Compound
16470	0.148	99			C#CCNC(=O)n1c(C)cc2c(F)c(Oc3ccnc4cc(C(=O)N5CCC(O)C5)sc34)ccc21 (stereo in doubt) [Example 5k, 4-Fluoro-5-[2-(3R-hydroxy-pyrrolidine-1-carbonyl)-thieno[3,2-b]pyridin-7-yloxy]-2-methyl-indole-1-carboxylic acid prop-2-ynylamide]
	0.109	99			CNC(=O)n1c(C)cc2cc(Oc3ccnc4cc(C(=O)N5C[C@H](O)[C@@H](O)C5)sc34)ccc21 [Example 8d]
	0.2	98			Cc1cc2cc(Oc3ccnc4cc(C(=O)N5C[C@@H](O)[C@@H](O)C5)sc34)ccc2n1C(=O)NC1CC1 [Example 4u, 5-[2-(3,4-cis-Dihydroxy-pyrrolidine-1-carbonyl)-thieno[3,2-b]pyridin-7-yloxy]-2-methyl-indole-1-carboxylic acid cyclopropylamide]
	0.142	98			C#CCNC(=O)n1c(C)c(Cl)c2c(F)c(Oc3ccnc4cc(C(=O)N5CC[C@@H](OC)C5)sc34)ccc21 [Example 6h, 3-Chloro-4-fluoro-5-[2-((R)-3-methoxy-pyrrolidine-1-carbonyl)-thieno[3,2-b]pyridin-7-yloxy]-2-methyl-indole-1-carboxylic acid prop-2-ynylamide]
	100	1			CNC(=O)c1c(C)[nH]c2ccc(Oc3ccnc4cc(C(=O)N5CCC[C@@H]5COC)sc34)cc12 [Example 4x, 5-[2-(2R-Methoxymethyl-pyrrolidine-1-carbonyl)-thieno[3,2-b]pyridin-7-yloxy]-2-methyl-1H-indole-3-carboxylic acid methylamide]
	0.115	98			CCCNC(=O)n1c(C)cc2cc(Oc3ccnc4cc(C(=O)N5C[C@H](OC)[C@@H](OC)C5)sc34)ccc21 [Example 8e, 5-[(2-{[(3S,4S)-3,4-dimethoxypyrrolidin-1-yl]carbonyl}thieno[3,2-b]pyridin-7-yl)oxy]-2-methyl-N-propyl-1H-indole-1-carboxamide]
	0.085	98			CNC(=O)n1c(C)cc2cc(Oc3ccnc4cc(C(=O)N5C[C@@H](O)[C@@H](O)C5)sc34)ccc21 [Example 4s, 5-[2-(3,4-cis-Dihydroxy-pyrrolidine-1-carbonyl)-thieno[3,2-b]pyridin-7-yloxy]-2-methyl-indole-1-carboxylic acid methylamide]
	1.23	97			CNC(=O)n1c(C)c(Cl)c2c(F)c(Oc3ccnc4cc(C(=O)N5CC[C@@H](OC)C5)sc34)ccc21 [Example 6g, 3-Chloro-4-fluoro-5-[2-(3R-methoxy-pyrrolidine-1-carbonyl)-thieno[3,2-b]pyridin-7-yloxy]-2-methyl-indole-1-carboxylic acid methylamide]
	34.3	14			CCOC(=O)c1cc2c(Oc3ccc4c(c3)cc(C)n4C(=O)NC)ncnc2s1 [Example 12c, 4-(2-Methyl-1-methylcarbamoyl-1H-indol-5-yloxy)-thieno[2,3-b]pyrimidine-6-carboxylic acid ethyl ester]
	0.279	99			CNC(=O)n1c(C)c(Cl)c2c(F)c(Oc3ccnc4cc(C(=O)N5CC[C@H](O)C5)sc34)ccc21 [Example 6e, 3-Chloro-4-fluoro-5-[2-(3S-hydroxy-pyrrolidine-1-carbonyl)-thieno[3,2-b]pyridin-7-yloxy]-2-methyl-indole-1-carboxylic acid methylamide]
	0.154	98			Cc1c(Cl)c2c(F)c(Oc3ccnc4cc(C(=O)N5CC[C@H](O)C5)sc34)ccc2n1C(=O)NC1CC1 [Example 6f, 3-Chloro-4-fluoro-5-[2-(3S-hydroxy-pyrrolidine-1-carbonyl)-thieno[3,2-b]pyridin-7-yloxy]-2-methyl-indole-1-carboxylic acid cyclopropyl-amide]
	0.416	99			C#CCNC(=O)n1c(C)cc2cc(Oc3ccnc4cc(C(=O)N5C[C@H](OC)[C@H](OC)C5)sc34)ccc21 [Example 4v, 5-[2-(3,4-cis-Dimethoxy-pyrrolidine-1-carbonyl)-thieno[3,2-b]pyridin-7-yloxy]-2-methyl-indole-1-carboxylic acid prop-2-ynylamide]
	0.701	96			CNC(=O)n1c(C)cc2cc(Oc3ccnc4cc(C(=O)N5C[C@H](OC)[C@H](OC)C5)sc34)ccc21 [Example 4r, 5-[2-(3,4-cis-Dimethoxy-pyrrolidine-1-carbonyl)-thieno[3,2-b]pyridin-7-yloxy]-2-methyl-indole-1-carboxylic acid methylamide]
	0.586	98			CNC(=O)n1c(C)cc2c(F)c(Oc3ccnc4cc(C(=O)N5CC[C@@H](O)C5)sc34)ccc21 [Example 5m, 4-Fluoro-5-[2-(3R-hydroxy-pyrrolidine-1-carbonyl)-thieno[3,2-b]pyridin-7-yloxy]-2-methyl-indole-1-carboxylic acid methylamide]
11	24	10	383	265	COC[C@H]1CCCN1C(=O)c1cc2nccc(Oc3ccc4[nH]c(C)c(C(=O)NC5CC5)c4c3)c2s1 [Example 4y, 5-[2-(2R-Methoxymethyl-pyrrolidine-1-carbonyl)-thieno[3,2-b]pyridin-7-yloxy]-2-methyl-1H-indole-3-carboxylic acid cyclopropylamide]
	0.189	99			CNC(=O)n1c(C)cc2c(F)c(Oc3ccnc4cc(C(=O)N5CC[C@@H](OC)C5)sc34)ccc21 [Example 5l, 4-Fluoro-5-[2-(3R-methoxy-pyrrolidine-1-carbonyl)-thieno[3,2-b]pyridin-7-yloxy]-2-methyl-indole-1-carboxylic acid methylamide]
	0.142	99			CNC(=O)n1c(C)cc2cc(Oc3ccnc4cc(C(=O)N5CC(F)[C@@H](OC)C5)sc34)ccc21 (stereo partly drawn) [Example 8j, 5-[(2-{[(4S)-3-Fluoro-4-methoxypyrrolidin-1-yl]carbonyl}thieno[3,2-b]pyridin-7-yl)oxy]-N,2-dimethyl-1H-indole-1-carboxamide]
